Measured values reported in ChEMBL document CHEMBL4270599, “Synthesis of a 3'-C-ethynyl-β-d-ribofuranose purine nucleoside library: Discovery of C7-deazapurine analogs as potent antiproliferative nucleosides” (Eur J Med Chem, 2018).

Tests used:
Assay type in all cases: functional
[1] = test system: HCT-15; assay: Cytotoxicity against human HCT15 cells after 48 hrs by SRB assay; conditions: HCT-15, 48 h; for GI50: read-out: GI50; for CC50: read-out: LC50 (the source's name)
[2] = test system: MDA-MB-231; assay: Growth inhibition of human MDA-MB-231 cells assessed as cell growth at 10^-5 M incubated for 48 hrs by sulforhodamine B assay relative to control; conditions: MDA-MB-231, 48 h, read-out: Activity
[3] = test system: Hs-578T; assay: Growth inhibition of human Hs 578T cells assessed as cell growth at 10^-6 M incubated for 48 hrs by sulforhodamine B assay relative to control; conditions: read-out: Activity
[4] = test system: CCRF-CEM; assay: Growth inhibition of human CCRF-CEM cells assessed as cell growth at 10^-6 M incubated for 48 hrs by sulforhodamine B assay relative to control; conditions: read-out: Activity
[5] = test system: M14; assay: Growth inhibition of human M14 cells assessed as cell growth at 10^-8 M incubated for 48 hrs by sulforhodamine B assay relative to control; conditions: M14, 48 h, read-out: Activity
[6] = test system: DU-145; assay: Growth inhibition of human DU145 cells assessed as cell growth at 10^-7 M incubated for 48 hrs by sulforhodamine B assay relative to control; conditions: DU-145, 48 h, read-out: Activity
[7] = test system: DU-145; assay: Growth inhibition of human DU145 cells assessed as cell growth at 10^-5 M incubated for 48 hrs by sulforhodamine B assay relative to control; conditions: DU-145, 48 h, read-out: Activity
[8] = test system: NCI-H522; assay: Growth inhibition of human NCI-H522 cells assessed as cell growth at 10^-7 M incubated for 48 hrs by sulforhodamine B assay relative to control; conditions: NCI-H522, 48 h, read-out: Activity
[9] = test system: SNB-75; assay: Growth inhibition of human SNB75 cells assessed as cell growth at 10^-7 M incubated for 48 hrs by sulforhodamine B assay relative to control; conditions: SNB-75, 48 h, read-out: Activity
[10] = test system: ACHN; assay: Cytotoxicity against human ACHN cells after 48 hrs by SRB assay; conditions: for CC50: read-out: pLC50 (the source's name) (converted)
[11] = test system: SNB-19; assay: Growth inhibition of human SNB19 cells assessed as cell growth at 10^-7 M incubated for 48 hrs by sulforhodamine B assay relative to control; conditions: SNB-19, 48 h, read-out: Activity
[12] = test system: UO-31; assay: Growth inhibition of human UO31 cells assessed as cell growth at 10^-8 M incubated for 48 hrs by sulforhodamine B assay relative to control; conditions: UO-31, 48 h, read-out: Activity
[13] = test system: UACC-257; assay: Growth inhibition of human UACC257 cells assessed as cell growth at 10^-8 M incubated for 48 hrs by sulforhodamine B assay relative to control; conditions: UACC-257, 48 h, read-out: Activity
[14] = test system: TK-10; assay: Growth inhibition of human TK10 cells assessed as cell growth at 10^-8 M incubated for 48 hrs by sulforhodamine B assay relative to control; conditions: TK-10, 48 h, read-out: Activity
[15] = test system: MDA-MB-435; assay: Growth inhibition of human MDA-MB-435 cells assessed as cell growth at 10^-6 M incubated for 48 hrs by sulforhodamine B assay relative to control; conditions: MDA-MB-435, 48 h, read-out: Activity
[16] = test system: SR; assay: Growth inhibition of human SR cells assessed as cell growth at 10^-8 M incubated for 48 hrs by sulforhodamine B assay relative to control; conditions: read-out: Activity
[17] = test system: SF-539; assay: Growth inhibition of human SF539 cells assessed as cell growth at 10^-6 M incubated for 48 hrs by sulforhodamine B assay relative to control; conditions: SF-539, 48 h, read-out: Activity
[18] = test system: A498; assay: Growth inhibition of human A498 cells assessed as cell growth at 10^-7 M incubated for 48 hrs by sulforhodamine B assay relative to control; conditions: A498, 48 h, read-out: Activity
[19] = test system: Malme-3M; assay: Growth inhibition of human MALME-3M cells assessed as cell growth at 10^-5 M incubated for 48 hrs by sulforhodamine B assay relative to control; conditions: read-out: Activity
[20] = test system: SR; assay: Growth inhibition of human SR cells assessed as cell growth at 10^-6 M incubated for 48 hrs by sulforhodamine B assay relative to control; conditions: read-out: Activity
[21] = test system: Hs-578T; assay: Growth inhibition of human Hs 578T cells assessed as cell growth at 10^-7 M incubated for 48 hrs by sulforhodamine B assay relative to control; conditions: read-out: Activity
[22] = test system: PC-3; assay: Growth inhibition of human PC3 cells assessed as cell growth at 10^-8 M incubated for 48 hrs by sulforhodamine B assay relative to control; conditions: PC-3, 48 h, read-out: Activity
[23] = test system: HL-60(TB); assay: Growth inhibition of human HL-60(TB) cells assessed as cell growth at 10^-5 M incubated for 48 hrs by sulforhodamine B assay relative to control; conditions: HL-60, 48 h, read-out: Activity
[24] = test system: HCC 2998; assay: Growth inhibition of human HCC2998 cells assessed as cell growth at 10^-8 M incubated for 48 hrs by sulforhodamine B assay relative to control; conditions: HCC 2998, 48 h, read-out: Activity
[25] = test system: NCI-H23; assay: Growth inhibition of human NCI-H23 cells assessed as cell growth at 10^-8 M incubated for 48 hrs by sulforhodamine B assay relative to control; conditions: NCI-H23, 48 h, read-out: Activity
[26] = test system: HCT-116; assay: Growth inhibition of human HCT116 cells assessed as cell growth at 10^-6 M incubated for 48 hrs by sulforhodamine B assay relative to control; conditions: HCT-116, 48 h, read-out: Activity
[27] = test system: BT-549; assay: Growth inhibition of human BT549 cells assessed as cell growth at 10^-5 M incubated for 48 hrs by sulforhodamine B assay relative to control; conditions: BT-549, 48 h, read-out: Activity
[28] = test system: SNB-19; assay: Growth inhibition of human SNB19 cells assessed as cell growth at 10^-8 M incubated for 48 hrs by sulforhodamine B assay relative to control; conditions: SNB-19, 48 h, read-out: Activity
[29] = test system: DU-145; assay: Growth inhibition of human DU145 cells assessed as cell growth at 10^-4 M incubated for 48 hrs by sulforhodamine B assay relative to control; conditions: DU-145, 48 h, read-out: Activity
[30] = test system: UACC-257; assay: Growth inhibition of human UACC257 cells assessed as cell growth at 10^-5 M incubated for 48 hrs by sulforhodamine B assay relative to control; conditions: UACC-257, 48 h, read-out: Activity
[31] = test system: SK-MEL-5; assay: Growth inhibition of human SK-MEL-5 cells assessed as cell growth at 10^-7 M incubated for 48 hrs by sulforhodamine B assay relative to control; conditions: SK-MEL-5, 48 h, read-out: Activity
[32] = test system: MDA-MB-231; assay: Growth inhibition of human MDA-MB-231 cells assessed as cell growth at 10^-8 M incubated for 48 hrs by sulforhodamine B assay relative to control; conditions: MDA-MB-231, 48 h, read-out: Activity
[33] = test system: HCT-15; assay: Growth inhibition of human HCT15 cells assessed as cell growth at 10^-6 M incubated for 48 hrs by sulforhodamine B assay relative to control; conditions: HCT-15, 48 h, read-out: Activity
[34] = test system: NCI-H460; assay: Growth inhibition of human NCI-H460 cells assessed as cell growth at 10^-6 M incubated for 48 hrs by sulforhodamine B assay relative to control; conditions: NCI-H460, 48 h, read-out: Activity

Row | Structure (SMILES) | GI50 [1] [µM] | CC50 [1] [µM] | TGI ([1]; read-out: TGI) [µM] | TGI ([1]; read-out: pTGI (converted)) [µM] | growth at 10 µM [2] [%] | growth at 1 µM [3] [%] | growth at 1 µM [4] [%] | growth at 0.01 µM [5] [%] | growth at 0.1 µM [6] [%] | growth at 10 µM [7] [%] | growth at 0.1 µM [8] [%] | growth at 0.1 µM [9] [%] | GI50 [10] [µM] | CC50 [10] [µM] | growth at 0.1 µM [11] [%] | growth at 0.01 µM [12] [%] | growth at 0.01 µM [13] [%] | growth at 0.01 µM [14] [%] | growth at 1 µM [15] [%] | growth at 0.01 µM [16] [%] | also measured
1 | C#C[C@@]1(O)[C@@H](CO)O[C@@H](n2cc(Br)c3c(N)ncnc32)[C@@H]1O | 0.172 to 0.707 | > 100 | > 100 | > 100 | 1 to 6 | 6 to 57 | 5 to 11 | 92 to 94 | 38 to 58 | 7 to 10 | 38 to 67 | 81 to 96 | 0.234 | > 100 | 6 to 71 | 70 to 84 | 87 to 100 | 100 to 106 | 15 to 28 | 101 to 104 | growth at 1 µM [17]: 3 to 19%; growth at 0.1 µM [18]: 88 to 98%; growth at 10 µM [19]: 5 to 10%; growth at 1 µM [20]: 7 to 9%; growth at 0.1 µM [21]: 92 to 97%; growth at 0.01 µM [22]: 86 to 92%; growth at 10 µM [23]: -51%; growth at 0.01 µM [24]: 86 to 99%; growth at 0.01 µM [25]: 90 to 91%; growth at 1 µM [26]: 2 to 3%; growth at 10 µM [27]: -44%; growth at 0.01 µM [28]: 64 to 98%; growth at 100 µM [29]: 8 to 10%; growth at 10 µM [30]: 37 to 43%; growth at 0.1 µM [31]: 30 to 71%; growth at 0.01 µM [32]: 90 to 104%; growth at 1 µM [33]: 4 to 7%
2 | C#C[C@@]1(O)[C@@H](CO)O[C@@H](n2cc(I)c3c(N)ncnc32)[C@@H]1O | 0.107 to 0.175 | > 100 | > 100 | > 100 | 10 to 12 | 38 to 53 | 17 to 23 | 85 to 94 | 50 to 57 | 8 to 11 | 42 to 64 | 81 to 83 | 0.316 | > 100 | 34 to 59 | 84 to 85 | 89 to 91 | 85 to 94 | 34 to 46 | 94 to 96 | TGI ([10]; read-out: TGI): > 100 µM; TGI ([10]; read-out: pTGI (converted)): > 100 µM; growth at 1 µM [17]: 23 to 35%; growth at 0.1 µM [18]: 74 to 89%; growth at 1 µM [20]: 21 to 24%; growth at 0.1 µM [21]: 73 to 84%; growth at 0.01 µM [22]: 81 to 84%; growth at 0.01 µM [24]: 87 to 90%; growth at 0.01 µM [25]: 87 to 91%; growth at 1 µM [26]: 5 to 6%; growth at 0.01 µM [28]: 88 to 92%; growth at 100 µM [29]: 7 to 10%; growth at 10 µM [30]: 6 to 7%; growth at 0.1 µM [31]: 62 to 65%; growth at 0.01 µM [32]: 96 to 100%; growth at 1 µM [33]: 11 to 20%; growth at 1 µM [34]: 6 to 9%
